Assays:
CT26 tumor = assay: Local gNO treatment of CT26 tumor bearing mice, primary tumor; assay type: in vivo
Method: Mice: All in vivo experimental procedures were carried out in accordance with the protocol approved by the Ethics Committee on the Use and Care of Animals. Institutional Animal Care and Use Committee (IACUC): 67-09-2019 and IL-20-3-149. The in vivo assays were performed on Balb/c or C57BU6J mice: 7-10 weeks of age, obtained from Envigo (Ness-Ziona, Israel), unless otherwise indicated.
Inoculation of tumor cells: Cancer cell suspensions at a concentration of 2.5-10.0×10^6 cells/ml were inoculated to the right flank of mice at a dose volume of 0.1 ml. Administration was performed as soon as possible following cell suspension preparation and after manual shaking prior to inoculation. The cell suspension was then aspirated into a 1-ml syringe with a 27G needle for subcutaneous (s.c.) injection.
Test article treatment: Mice were first anesthetized by an intraperitoneal (i.p) injection of 100 mg/kg ketamine and 20 mg/kg xylazine hydrochloride solution. After 10 minutes, tumor-bearing mice were treated with the indicated dose of gNO.
In all protocols, the gas was delivered from NO in N2 cylinders. The outlet pressure was set to 2-3.5 bar using a pressure regulator that was connected directly to the cylinder.
In protocols that involve administration by needle injection, a silicone hose was connected directly to the pressure regulator on one end and to a manual or digital MFC on the other end. The flow was adjusted to 0.05 LPM-0.25 LPM. An additional silicone hose was connected to the flow controller as well as to a 23G hypodermic needle. The needle was inserted horizontally into the center of each tumor.
Tumor volume calculation: Local tumor growth was determined by measuring 3 mutually orthogonal tumor dimensions 2-3 times per week, according to the following formula:
or Tumor volume=Diameter 1× Diameter 2^2/2, unless otherwise indicated. Diameter 1 represents length, Diameter 2 represents width and Diameter 3 represents height.
BALB/c female and male mice were obtained from Almog Diagnostic that purchased them from Envigo, Israel. The mice were 7-8 weeks of age. Animal care and experimentation were performed in accordance with the Bar-Ilan University guidelines.
CT-26, a colon carcinoma cell line was induced in a BALB/c mouse by chemical carcinogenesis.
Cells were cultured in Roswell Park Memorial Institute (RPMI) 1640 supplemented with 100 U/ml penicillin, 100 μg/ml streptomycin, 2 mM L-glutamine; 1 mM sodium pyruvate; 1% non-essential amino acid solution; 10% fetal calf serum. Cultures were maintained at 37° C. in a humidified incubator with a 5% CO2 atmosphere.
Mice were inoculated subcutaneously with 5×10^5 CT-26 cells suspended in 100 μL Hank's Balanced Salt Solution (HBSS) into the low lateral side of the back. Local tumor growth was determined by measuring two mutually orthogonal tumor diameters with a caliper. The volume of the tumor was calculated using the formula: Vol=D1×D2×D2/2, where D1, D2 are two mutually orthogonal tumor diameters.
Air-1 is a female Balb/c mouse that was treated twice. On day 0 the tumor volume was 64.85 mm^3.
NO-1 is a female Balb/c mouse and was treated once. […] Then, the skin was removed from the tumor, and the tumor was re-exposed to gNO via a perforated flask filled with gNO using the same parameters.
NO-2 is a male Balb/c mouse and was treated 3 times. On day 0 the tumor volume was 38.51 mm^3. Day 0—gNO at 50,000 ppm was administered for 3.8 minutes at a flow rate of 0.9 using a cap. Day 5: gNO at 10,000 ppm was administered for 30 minutes using a cap. Then, gNO was delivered intra-tumorally by a 23G needle such as shown in FIG. 11B at 0.3 LPM for another 10 minutes, using an intra-tumoral channel. The tip of the needle was directed at the outside area. Day 11: gNO at 10,000 ppm was delivered to the tumor for 5 minutes and at a flow rate of 0.3 LPM, using a 23G needle and an intra-tumoral channel.
In an additional set of experiments, aluminum disposable gas cylinders were used. […]

4T1 challenge tumor = assay: Challenge assay in 4T1 tumor-bearing mice; assay type: in vivo; settings: 50,000 ppm gNO intra-tumorally for 10 minutes
Method: (§1) Challenge tumor inoculation: Up to 21 days after gas treatment was applied to the primary tumor, the appropriate cancer cell suspensions were prepared as described herein and inoculation of cells was repeated on the contralateral flank of the mice. Administration was performed as soon as possible following cell suspension preparation and after manual shaking prior to withdrawal of the cell suspension.
(§2) The percentage of challenge tumor take was monitored 2-3 times a week by taking a look at the inoculated site and touching this area to look for small tumors that are not yet visible. Naïve mice inoculated with tumor cells for the first time served as an internal control.
In another challenge assay, 4T1 tumor-bearing mice were treated with 50,000 ppm gNO administered intra-tumorally by a 23G hypodermic needle for 10 minutes, and the effect of a local treatment with gNO on the primary tumor as compared to nitrogen was tested, as depicted in FIG. 16A. Fourteen days post gNO treatment, mice were re-inoculated with 10×10^5 4T1 cells subcutaneously (s.c.) (challenge assay). The percentage of tumor take was monitored by caliper measurements 2-3 times a week for 10 days. Naïve mice, inoculated with 4T1 for the first time, served as the control group. […]

LLC1 challenge tumor = assay: Challenge assay in LLC1 tumor-bearing mice; assay type: in vivo; settings: 50,000 ppm NO intra-tumorally for 10 minutes; 9 days post challenge tumor inoculation
Method: as §1, §2
gNO local administration was tested in a Challenge assay, as depicted in FIG. 15A, in order to evaluate whether treating the primary tumor by gNO based ablation stimulates an anti-tumor immune response that results in rejection of a secondary tumor inoculation. A secondary, “challenge”, tumor cells inoculation also serves as a metastasis model.
LLC1 tumor-bearing mice were treated with 50,000 ppm NO administered intra-tumorally by a 23G hypodermic needle for 10 minutes. Up to 2 weeks post the first gas treatment all gas-treated mice were re-inoculated with 2.5×10^5 LLC1 cells suspended in 100 μL HBSS into the left flank. Naïve mice inoculated with 5×10^5 CT-26 cells served as an internal control for cells' quality.

CT26 challenge tumor = assay: gNO, tumor excision and CT26 re-challenge: tumor take and survival; assay type: in vivo, mice; settings: about 75 days
Method: CT26 tumor-bearing male mice were treated with 20,000 ppm and 50,000 ppm gNO intra-tumorally for 5 minutes. Fourteen days post gNO treatment, all tumors were excised. A week post surgery, all mice were re-challenged via a second inoculation of 5×10^5 CT26 cells, and tumor take and survival were monitored during about 75 days, as depicted in FIG. 21A.

[N]=O [gNO, nitric oxide]
CT-26 tumor destruction (CT26 tumor; 10,000 ppm gNO, 0.9 LPM, 20 minutes in flask, 1-17 days post treatment): 100%
tumor on photographs after treatment (CT26 tumor; 10,000 ppm gNO, 0.9 LPM, 20 minutes in flask, 1 minute, 9 days and 14 days post treatment): the tumor was destructed
cured mice (CT26 tumor; 25,000 ppm gNO intra-tumoral 15 minutes, 0.25 LPM, repeated a week later, 44 days post the first treatment): 50%
mice with CT-26 tumor growth inhibition compared to air treatment (CT26 tumor; 50,000 ppm intra-tumoral 2-3 minutes 0.2 LPM, then 10,000 ppm 6 minutes intra-tumoral and 4 minutes to outer layer): ⅔
tumor on photographs after treatment (CT26 tumor; 200,000 ppm gNO for 2 seconds, 0.01 LPM, 9 days after treatment): the tumor disappeared
size of air-treated tumor relative to gNO-treated tumors (CT26 tumor; CT26 tumors, 10,000-50,000 ppm gNO (mice NO-1, NO-2), 12 days post treatment 1): more than 30 times
development of a secondary (challenge) 4T1 tumor (4T1 challenge tumor; 5 days post challenge tumor inoculation): have not developed a secondary tumor
challenge tumor take compared to non-treated and nitrogen-treated mice (4T1 challenge tumor; 10 days post re-inoculation): a delay in the challenge tumor take was achieved
development of a secondary (challenge) LLC1 tumor (LLC1 challenge tumor): none of the gas-treated mice developed a secondary tumor
challenge tumor development (CT26 challenge tumor; 20,000 ppm and 50,000 ppm gNO 5 minutes, excision day 14, re-challenge a week post surgery): no tumor development
survival (CT26 challenge tumor; 50,000 ppm gNO 5 minutes, excision, re-challenge): 100%
